Source: patent US7223733B2, “Modulation of TRIP-Br function and method of treating proliferative disorders” (National University of Singapore, priority 2004, dated 2007)
Where no end group is shown, it is not given here.

Key:
Format in all cases: cell-based, human
[1] = tested on: caspase-3 protease activity; assay: Caspase assay with Ac-DEVD-AFC in U2OS cells; conditions: 50 μM decoy peptides, 48 or 72 h
Experimental: Caspase assay. Both adherent and detached cells in 6-well dishes were harvested by centrifugation at 2000 rpm for 15 min at 4° C. The resulting cell pellets were incubated in 50 μl of chilled lysis buffer (Clontech) on ice for 10 min. Cell lysates were incubated in a reaction mix containing 10 mM HEPES, 2.0 mM EDTA, 10 mM KCl, 1.5 mM MgCl2, 1.0 mM PMSF, aprotinine, pepstatin A and leupeptine (20 μM each), 6.0 mM DTT and Ac-DEVD-AFC (4.0 μg/ml). Reactions were allowed to proceed at room temperature. Fluorescence readings were taken at 15 min intervals for 1 h using a spectrofluorometer (excitation wavelength: 400 nm; emission wavelength: 505 nm).
FIG. 6: Caspase assay. (A) Caspase 3 protease activity in U2OS cells exposed to either Eto (Etoposide) for 24 h or 50 μM decoy peptides for 48 or 72 h, were assayed using the Ac-DEVD-AFC fluorogenic substrate. […] Values represent the average +/− standard deviation of two independent experiments. Control: cells cultured in normal growth medium; Vehicle: cells cultured in the presence of 0.5% DMSO; (B) Western blot analysis of PARP cleavage. U2OS cells were exposed to either Eto (Etoposide) for 24 h or 50 μM decoy peptides for 72 h. Lane 1: Vehicle cells (cultured in the presence of 0.5% DMSO for 24 h); Lane 2: 25 μM Eto; Lane 3: 250 μM Eto; Lane 4: Vehicle (cells cultured in the presence of 0.5% DMSO for 72 h); Lane 5: *SCR; Lane 6: *Br1; Lane 7: *Br2.

U2OS cells = assay: Cell number (Coulter counter) and viability (trypan blue) of U2OS cells; conditions: for total cell number over time: 50 μM, 0, 48 and 72 h, Coulter counter; for viable cells, trypan blue manual count: 50 μM, 72 h, compared to vehicle or *SCR
Experimental: Determination of cell number and viability. U2OS cells grown in 6-well dishes for 24 h were exposed to 2 ml of growth medium containing either vehicle (0.5% DMSO) or 50 μM decoy peptides for 48 or 72 h. Following treatment, the cells were washed twice with 1×PBS, harvested by trypsinization and re-suspended in 1 ml 1×PBS. 10 μl of cell suspension was taken from each sample and enumerated either electronically or manually. For electronic total cell counts, 10 μl of cell suspension was diluted in 20 ml of isoton® II buffer (Coulter®) and cell number was estimated using an electronic Coulter® counter. For manual counting of viable cells, 10 μl of cell suspension from each sample was mixed with equal volume of trypan blue stain (Sigma, 0.4% w/v in 1×PBS). The number of viable (unstained) cells was enumerated manually using a hemocytometer. FIG. 4: Time-dependent and dose-dependent anti-proliferative effects of the decoy peptides. (A) Time-dependent anti-proliferative effects of the decoy peptides. U2OS cells, exposed to either vehicle (0.5% DMSO) or 50 μM decoy peptides for either 24 or 48 h, were assayed for BrdU incorporation with a colorimetric ELISA assay. Values represent the average +/− standard deviation of two independent experiments; (B) Dose-dependent anti-proliferative effects of the decoy peptides. U2OS cells, exposed to 5, 10, 20 or 50 μM of *SCR (solid line and square), *Br1 (dashed line and triangle) or *Br2 (dashed line and circle) for 48 h, were assayed for BrdU incorporation with a colorimetric ELISA assay. Values represent the average +/− standard deviation of at least two independent experiments; (C) Cell proliferation analysis. Left panel: At 0, 48 and 72 h post decoy peptide treatment, total cell number was determined electronically using a Coulter® counter. Right panel: At 72 h post-treatment, cells were harvested and stained with trypan blue for viable cell count analysis.

cyclins and Cdks = assay: Cell cycle protein expression profile of U2OS cells released from nocodazole arrest (Western blot); conditions: U2OS released from nocodazole block; for timing of cyclin E protein accumulation: 20 μM; for absolute levels of cyclin E protein: up to 24 h post-release
Experimental: Cell synchronization and cell cycle progression analyses. U2OS cells in 6-well dishes were subjected to nocodazole treatment (75 ng/ml) for 22 h. Thereafter, the nocodazole-arrested cultures were released by washing with 1×PBS and grown in DMEM plus 10% FBS containing either vehicle (0.5% DMSO) or 20 μM decoy peptides. Cells were harvested at 4-h intervals for standard Western blot analyses. For the analysis of Geminin protein profile, mock- or cyclin E/Cdk2-transfected U2OS cells were exposed to nocodazole (75 ng/ml) at 3 h post-transfection for 22 h. Denaturing SDS-PAGE and western blotting. Proteins from whole cell lysate and IP complexes were separated using standard denaturing polyacrylamide gel electrophoresis as described previously (Hsu, S. I. H., et al. EMBO J 20, 2273-2285 (2001)). FIG. 7: Cell cycle protein expression profile and protein decay analysis. (A) Protein expression profile of U2OS cells released from nocodazole arrest in the absence or presence of decoy peptide treatment. Protein expression of various cyclins and Cdks was assessed by Western blotting using whole cell lysates from synchronized U2OS cells at 4, 8, 12, 16, 20 and 24 h after release. Coomassie-stained proteins served as loading controls; (B) U2OS cells transfected with vector backbone (vehicle) or pRc/cyclin E and pCMV/Cdk2 (1 μg each), were arrested at the G2/M boundary by exposure to nocodazole (75 ng/ml) and then released to re-enter the cell cycle. Protein expression of cyclin E and Geminin was assessed using whole cell lysates from synchronized U2OS cells at 0, 4, 8, 12, 16 and 20 h after release; (C) Protein decay analysis of Geminin expression in the absence or presence of cyclin E/Cdk2 over-expression (left panel) or in the absence or presence of decoy peptide treatment (right panel) by Western blotting (WB). Coomassie stained proteins served as the loading control (C).

Sequence | caspase-3 protease activity in cell lysates [1] | total cell number over time (U2OS cells) | timing of cyclin E protein accumulation (cyclins and Cdks) | viable cells, trypan blue manual count (U2OS cells) | absolute levels of cyclin E protein (cyclins and Cdks)
ERQIKIWFQNRRMKWKKGLDEDGLLLFCEGDTIAD (Peptide containing penetratin sequence from Drosophila and random peptide sequence) [*SCR, reference compound] | indistinguishable from the baseline activity | nearly identical increments in cell number over time | accumulated during mid-to-late G1 between 8 h and 16 h post-release |  | 
ERQIKIWFQNRRMKWKKTGFLTDLTLDDILFADID (ERQIKIWFQNRRMKWKKTGFLTDLTLDDILFADID-NH2) [*Br2] | indistinguishable from the baseline activity | nearly complete cessation of cell proliferation | premature accumulation of cyclin E beginning in early G1 | significantly fewer viable cells | dramatically up-regulated and sustained at high levels
ERQIKIWFQNRRMKWKKATGCLLDDGLEGLFEDID (ERQIKIWFQNRRMKWKKATGCLLDDGLEGLFEDID-NH2) [*Br1] | indistinguishable from the baseline activity | nearly complete cessation of cell proliferation | premature accumulation of cyclin E beginning in early G1 | significantly fewer viable cells | dramatically up-regulated and sustained at high levels
